Experimental data taken from US9616064B2, “Rho kinase inhibitors and methods of use” (H. LEE MOFFITT CANCER CENTER AND RESEARCH INSTITUTE, INC., priority 2011, dated 2017).
Like-named read-outs stand apart in the source and are kept apart here.

Columns and labels:
[1] = target: ROCK1 (Homo sapiens (Human), UniProt Q13464); test: Z-lyte FRET assay to measure kinase inhibition, ROCK1; assay type: biochemical; conditions: for inhibition at 100 µM: read-out: ROCK1 % inhibition @ 100 μM, 100 μM compound; for inhibition at 50 µM: read-out: ROCK1 % inhibition @ 50 μM, 50 μM compound
[2] = target: ROCK2 (Homo sapiens (Human), UniProt O75116); test: Z-lyte FRET assay to measure kinase inhibition, ROCK2; assay type: biochemical
Chain of ROCK2 (O75116 whole entry, species assumed): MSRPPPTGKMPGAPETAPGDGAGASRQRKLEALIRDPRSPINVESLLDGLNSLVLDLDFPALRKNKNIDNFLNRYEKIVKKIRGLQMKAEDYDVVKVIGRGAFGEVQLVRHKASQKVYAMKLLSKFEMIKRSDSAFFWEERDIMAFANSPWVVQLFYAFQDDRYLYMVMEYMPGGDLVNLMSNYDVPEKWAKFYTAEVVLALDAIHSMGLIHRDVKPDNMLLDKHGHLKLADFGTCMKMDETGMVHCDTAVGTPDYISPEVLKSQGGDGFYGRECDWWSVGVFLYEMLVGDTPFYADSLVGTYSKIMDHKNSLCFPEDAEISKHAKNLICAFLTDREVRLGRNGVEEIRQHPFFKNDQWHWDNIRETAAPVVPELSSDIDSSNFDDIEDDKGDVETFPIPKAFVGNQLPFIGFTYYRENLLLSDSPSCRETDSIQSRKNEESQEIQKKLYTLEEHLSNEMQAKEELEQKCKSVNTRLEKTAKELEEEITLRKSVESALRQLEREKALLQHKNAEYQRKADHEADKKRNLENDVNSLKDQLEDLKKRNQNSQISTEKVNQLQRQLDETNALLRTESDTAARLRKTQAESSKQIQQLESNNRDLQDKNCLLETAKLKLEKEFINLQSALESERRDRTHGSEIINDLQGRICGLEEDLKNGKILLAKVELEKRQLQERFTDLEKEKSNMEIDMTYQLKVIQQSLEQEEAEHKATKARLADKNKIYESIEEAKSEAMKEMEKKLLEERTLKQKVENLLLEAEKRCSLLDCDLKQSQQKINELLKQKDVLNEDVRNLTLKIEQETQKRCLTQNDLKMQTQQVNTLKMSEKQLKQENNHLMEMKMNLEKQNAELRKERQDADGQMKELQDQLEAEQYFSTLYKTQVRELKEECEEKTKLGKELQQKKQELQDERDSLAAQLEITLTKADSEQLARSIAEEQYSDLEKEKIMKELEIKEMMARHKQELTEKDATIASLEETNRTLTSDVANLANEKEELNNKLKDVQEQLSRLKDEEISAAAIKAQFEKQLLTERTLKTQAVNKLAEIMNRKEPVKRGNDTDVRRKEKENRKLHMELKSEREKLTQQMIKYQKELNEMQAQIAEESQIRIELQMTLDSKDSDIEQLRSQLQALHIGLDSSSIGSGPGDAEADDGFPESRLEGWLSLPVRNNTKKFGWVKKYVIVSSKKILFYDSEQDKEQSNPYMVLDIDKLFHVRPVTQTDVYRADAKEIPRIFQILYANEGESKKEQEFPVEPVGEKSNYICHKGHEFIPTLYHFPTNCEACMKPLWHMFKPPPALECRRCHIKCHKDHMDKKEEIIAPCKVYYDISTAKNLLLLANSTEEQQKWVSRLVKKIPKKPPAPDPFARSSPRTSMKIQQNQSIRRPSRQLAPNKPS

Chain of ROCK1 (Q13464 whole entry): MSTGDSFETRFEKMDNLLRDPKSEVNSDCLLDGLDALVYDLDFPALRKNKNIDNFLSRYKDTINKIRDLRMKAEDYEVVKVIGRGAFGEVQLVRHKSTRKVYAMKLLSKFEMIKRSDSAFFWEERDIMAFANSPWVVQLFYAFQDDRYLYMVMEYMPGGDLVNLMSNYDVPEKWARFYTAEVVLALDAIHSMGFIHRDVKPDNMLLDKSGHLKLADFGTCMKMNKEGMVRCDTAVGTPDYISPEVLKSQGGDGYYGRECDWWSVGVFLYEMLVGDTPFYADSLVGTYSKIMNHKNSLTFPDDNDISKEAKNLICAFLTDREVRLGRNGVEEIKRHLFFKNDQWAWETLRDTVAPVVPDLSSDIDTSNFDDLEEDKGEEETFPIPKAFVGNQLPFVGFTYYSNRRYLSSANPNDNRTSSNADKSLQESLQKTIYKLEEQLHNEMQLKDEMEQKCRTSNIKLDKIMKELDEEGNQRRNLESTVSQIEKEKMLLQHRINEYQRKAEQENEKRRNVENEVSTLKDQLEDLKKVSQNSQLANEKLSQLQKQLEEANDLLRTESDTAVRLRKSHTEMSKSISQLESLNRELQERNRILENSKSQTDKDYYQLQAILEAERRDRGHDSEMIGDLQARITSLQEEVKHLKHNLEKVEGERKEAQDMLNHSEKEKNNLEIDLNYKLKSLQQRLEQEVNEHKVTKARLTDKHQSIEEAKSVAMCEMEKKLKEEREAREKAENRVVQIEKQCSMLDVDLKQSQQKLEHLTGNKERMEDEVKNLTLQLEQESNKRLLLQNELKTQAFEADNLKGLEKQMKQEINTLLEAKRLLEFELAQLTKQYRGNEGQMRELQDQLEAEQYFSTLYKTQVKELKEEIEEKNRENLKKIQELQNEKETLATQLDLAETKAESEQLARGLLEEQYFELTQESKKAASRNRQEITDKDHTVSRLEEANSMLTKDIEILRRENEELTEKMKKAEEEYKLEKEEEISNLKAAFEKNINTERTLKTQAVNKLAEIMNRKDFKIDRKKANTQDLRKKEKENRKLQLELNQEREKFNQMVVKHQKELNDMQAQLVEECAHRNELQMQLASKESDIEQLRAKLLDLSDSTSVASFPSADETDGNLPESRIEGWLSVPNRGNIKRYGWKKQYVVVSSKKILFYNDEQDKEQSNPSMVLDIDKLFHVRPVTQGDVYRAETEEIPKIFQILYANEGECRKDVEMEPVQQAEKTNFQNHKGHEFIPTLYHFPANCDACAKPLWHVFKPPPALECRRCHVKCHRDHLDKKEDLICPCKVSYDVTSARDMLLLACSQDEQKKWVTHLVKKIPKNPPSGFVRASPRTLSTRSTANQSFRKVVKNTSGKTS

CC[C@@H](NC(=O)c1cccc2c1ccn2-c1ccnc(N)n1)c1ccccc1
inhibition at 100 µM [1]: 122% | IC50 ([1]; read-out: ROCK1 IC50): 1.77 ± 0.24 µM

Nc1nccc(Nc2ccc(S(N)(=O)=O)cc2)n1 [NSC-135784, reference compound]
IC50 ([1]; NCI sample, screening hit, weak inhibitor, read-out: IC50 (screen of NCI Diversity set, NCI sample)): 92 µM

CC1Cc2cc(F)ccc2N1c1ccnc(N)n1 (centres unmarked)
IC50 [2]: 0.2 ± 0.01 µM | inhibition at 50 µM [1]: 97 ± 4% | IC50 ([1]; read-out: ROCK1 IC50): 0.4 ± 0.1 µM

Nc1nccc(N2CCc3cc(F)ccc32)n1
IC50 [2]: 0.7 ± 0.1 µM | inhibition at 50 µM [1]: 89 ± 7% | IC50 ([1]; read-out: ROCK1 IC50): 1.2 ± 0.2 µM

COc1cccc(CC(=O)Nc2cccc3c2ccn3-c2ccnc(N)n2)c1
inhibition at 100 µM [1]: 62% | IC50 ([1]; read-out: ROCK1 IC50): 13 ± 6.81 µM

Nc1nccc(-n2ccc3c(C(=O)NCc4ccccc4-c4ccccc4)cccc32)n1
inhibition at 100 µM [1]: 7%

Nc1nccc(N2CCc3ccc([N+](=O)[O-])cc32)n1
IC50 [2]: 1.8 ± 0.3 µM | inhibition at 50 µM [1]: 51 ± 1% | IC50 ([1]; read-out: ROCK1 IC50): 2.2 ± 0.3 µM

COc1ccc2ccn(-c3ccnc(N)n3)c2c1
IC50 [2]: 4.9 ± 1 µM | inhibition at 50 µM [1]: 88 ± 2% | IC50 ([1]; read-out: ROCK1 IC50): 4.9 ± 0.5 µM

Nc1nccc(N2CCc3cc(Br)ccc32)n1
IC50 [2]: 1.2 ± 0.1 µM | inhibition at 50 µM [1]: 83 ± 5% | IC50 ([1]; read-out: ROCK1 IC50): 1.7 ± 0.3 µM

COc1cccc([C@H](C)NC(=O)c2cccc3c2ccn3-c2ccnc(N)n2)c1
inhibition at 100 µM [1]: 97% | IC50 ([1]; read-out: ROCK1 IC50): 1.38 ± 0.63 µM

Nc1nccc(-n2ccc3cccc(OCc4ccccc4)c32)n1
inhibition at 50 µM [1]: -5 ± 0.5%

Nc1nccc(Nc2cccc([N+](=O)[O-])c2)n1
IC50 [2]: 7.82 ± 2.3 µM | inhibition at 50 µM [1]: 91 ± 2% | IC50 ([1]; read-out: ROCK1 IC50): 4.86 ± 0.6 µM

Nc1nccc(-n2ccc3c(C(=O)Nc4ccccc4)cccc32)n1
inhibition at 50 µM [1]: 9 ± 1%

CC[C@H](NC(=O)c1cccc2c1ccn2-c1ccnc(N)n1)c1ccccc1
inhibition at 100 µM [1]: 88% | IC50 ([1]; read-out: ROCK1 IC50): 9.76 ± 0.86 µM

Nc1nccc(Nc2ccc(CC(=O)O)cc2)n1
inhibition at 50 µM [1]: 2 ± 1%

CCOc1ccc(Nc2ccnc(N)n2)cc1
inhibition at 50 µM [1]: 31 ± 4%

Nc1nccc(Oc2ccccc2)n1
inhibition at 50 µM [1]: -0.5 ± 1%

Nc1nc(Nc2ccc(S(N)(=O)=O)cc2)c2[nH]cnc2n1
inhibition at 50 µM [1]: 9 ± 2%

Nc1nccc(Nc2cc(S(N)(=O)=O)ccc2O)n1
inhibition at 50 µM [1]: 36 ± 5%

COCCOc1cccc(CNC(=O)c2cccc3c2ccn3-c2ccnc(N)n2)c1
inhibition at 100 µM [1]: 86% | IC50 ([1]; read-out: ROCK1 IC50): 9.31 ± 8.68 µM

COc1ccc(CNC(=O)c2cccc3c2ccn3-c2ccnc(N)n2)cc1
inhibition at 50 µM [1]: 19.4 ± 13.7%

Nc1nccc(-n2ccc3ccc(OCc4ccccc4)cc32)n1
inhibition at 50 µM [1]: -5 ± 2%

COc1cccc(CN(C)C(=O)c2cccc3c2ccn3-c2ccnc(N)n2)c1
inhibition at 100 µM [1]: 89% | IC50 ([1]; read-out: ROCK1 IC50): 15.2 ± 3.74 µM

COc1cccc(CNC(=O)c2cccc(Nc3ccnc(N)n3)c2)c1
inhibition at 100 µM [1]: 97% | IC50 ([1]; read-out: ROCK1 IC50): 7.3 ± 1.29 µM

c1ccc(Nc2nccc(N3CCc4ccccc43)n2)cc1
inhibition at 50 µM [1]: -1 ± 2%

Nc1nccc(-n2ccc3cc(OCCc4ccccc4)ccc32)n1
inhibition at 50 µM [1]: 21 ± 14%

Nc1nccc(-n2ccc3c(C(=O)NCc4ccccc4Cl)cccc32)n1
inhibition at 50 µM [1]: 39.2 ± 4.19%

Nc1nccc(Oc2ccc(S(N)(=O)=O)cc2)n1
inhibition at 50 µM [1]: -0.3 ± 1%

Nc1nccc(Nc2ccc(S(=O)(=O)Nc3nccs3)cc2)n1
inhibition at 50 µM [1]: 21 ± 10%

Nc1nccc(Nc2ccc(S(=O)(=O)Nc3ccccc3)cc2)n1
inhibition at 50 µM [1]: 46 ± 4% | IC50 ([1]; read-out: ROCK1 IC50): > 100 µM

Nc1nccc(Nc2ccc(S(=O)(=O)NC(=O)c3ccccc3)cc2)n1
inhibition at 50 µM [1]: 2.1 ± 1.9%

Nc1nccc(Nc2cccc(Cl)c2)n1
inhibition at 100 µM [1]: 89% | IC50 ([1]; read-out: ROCK1 IC50): 5.71 ± 1.44 µM

Nc1nccc(Nc2ccc3cc[nH]c3c2)n1
inhibition at 50 µM [1]: 23 ± 1%

COc1cc(NC(C)=O)ccc1Nc1ccnc(N)n1
inhibition at 50 µM [1]: 2 ± 1%

CS(=O)(=O)c1ccc(Nc2ccnc(N)n2)cc1
inhibition at 50 µM [1]: 38 ± 1%

CC(=O)Nc1cccc(CNC(=O)c2cccc3c2ccn3-c2ccnc(N)n2)c1
inhibition at 100 µM [1]: 117% | IC50 ([1]; read-out: ROCK1 IC50): 1.39 ± 0.26 µM

COc1cccc(CNC(=O)c2cccc3c2ccn3-c2cc(N)nc(N)n2)c1
inhibition at 50 µM [1]: 1.26 ± 0.79%

COc1cccc(CNC(=O)c2cccc3c2ccn3-c2ccnc(NC(C)=O)n2)c1
inhibition at 100 µM [1]: 80% | IC50 ([1]; read-out: ROCK1 IC50): 15.4 ± 4.02 µM

Nc1nccc(N2CCc3cc([N+](=O)[O-])ccc32)n1
inhibition at 50 µM [1]: 24 ± 2%

c1ccc(COc2cccc3c2CCN3c2ncnc3[nH]ccc23)cc1
inhibition at 50 µM [1]: 33 ± 4%

CC(=O)NS(=O)(=O)c1ccc(Nc2ccnc(N)n2)cc1
inhibition at 50 µM [1]: 9 ± 1.5%

Nc1nccc(Nc2ccc3[nH]ccc3c2)n1
inhibition at 50 µM [1]: 37 ± 1%

Nc1nccc(N2c3ccccc3CC2c2ccccc2)n1 (centres unmarked)
inhibition at 50 µM [1]: 18 ± 1%

Clc1nccc(N2CCc3ccccc32)n1
inhibition at 50 µM [1]: -3 ± 1%

Nc1nccc(-n2ccc3c(C(=O)NCc4cccc(N5CCCC5=O)c4)cccc32)n1
inhibition at 100 µM [1]: 99% | IC50 ([1]; read-out: ROCK1 IC50): 8.31 ± 7.39 µM

COc1cccc([C@@H](C)NC(=O)c2cccc3c2ccn3-c2ccnc(N)n2)c1
inhibition at 100 µM [1]: 92% | IC50 ([1]; read-out: ROCK1 IC50): 0.213 ± 0.025 µM
